Experiments:
[1] = target: T1, Human immunodeficiency virus type 1 protease (Human immunodeficiency virus 1, UniProt Q72874); test: Inhibitory concentration against Protease
[2] = target: T1, Human immunodeficiency virus type 1 protease; test: Evaluated for inhibition of Protease after resynthesis and purification
[3] = target: T1, Human immunodeficiency virus type 1 protease; test: Evaluated for inhibition of Protease after CLND/MS correction from the crude mixture

Row | IC50 [1] [µM] | IC50 [2] [µM] | IC50 [3] [µM] | SMILES
1 | > 1000 | – | – | COc1cc(CC2C(=O)OC(C)(C(=O)NC(C)(C)C)C2=O)cc(OC)c1OC (configuration not stated) [3-Hydroxy-2-methyl-5-oxo-4-(3,4,5-trimethoxy-benzyl)-2,5-dihydro-furan-2-carboxylic acid tert-butylamide]
2 | > 1000 | – | – | COc1cc(CC2C(=O)OC(CCc3ccccc3)(C(=O)NCC(C)(C)C)C2=O)cc(OC)c1OC (configuration not stated) [3-Hydroxy-5-oxo-2-phenethyl-4-(3,4,5-trimethoxy-benzyl)-2,5-dihydro-furan-2-carboxylic acid (2,2-dimethyl-propyl)-amide]

Second part, the molecule before the results:

Row | SMILES | IC50 [1] [µM] | IC50 [2] [µM] | IC50 [3] [µM]
3 | C[C@@H](c1ccccc1)C1C(=O)O[C@](CCc2ccccc2)(C(=O)NCc2ccc(C(C)(C)C)cc2)C1=O (some centres not stated) | 84 | 4.6 | 1.2
4 | COc1cc(CC2C(=O)OC(C)(C(=O)NC3CC3)C2=O)cc(OC)c1OC (configuration not stated) [3-Hydroxy-2-methyl-5-oxo-4-(3,4,5-trimethoxy-benzyl)-2,5-dihydro-furan-2-carboxylic acid cyclopropylamide] | > 1000 | – | –
5 | CNC1C(=O)OC(CCc2ccccc2)(C(=O)NCC2CCCO2)C1=O (configuration not stated) [3-Hydroxy-4-methylamino-5-oxo-2-phenethyl-2,5-dihydro-furan-2-carboxylic acid (tetrahydro-furan-2-ylmethyl)-amide] | > 1000 | – | –

Source: BindingDB's records for doi:10.1016/j.bmcl.2004.04.026 (Morphochem, 2004)
